Earlier results on one compound are cited in PubChem BioAssay AID1259409 (Chemical Carcinogenesis Research Information System (CCRIS), 2018).

SMILES strings stand for the structures.

This data set deals with rodent chemically induced tumor inhibition, incidence and multiplicity. As to the kind of experiment: CCRIS tumor inhibitor studies. To be noted: Dose [Inhibitor]: 0, Species: RAT.

`NCCS`: the “tumour outcome (control, treated, inhibition, significance)” value is, setting by setting: (Carcinogen: 7,12-DIMETHYLBENZ[A]ANTHRACENE, 57-97-6, 0.015 MOL/KG DIET BEGINNING 2 WK PRIOR TO CARCINOGEN AND CONTINUED FOR STUDY DURATION (STUDY DURATION: 25 WK), Route [Inhibitor]: ORAL, Strain/Sex: CD-1/FEMALE, Target Tissue: Type of Lesion: MAMMARY GLAND: ADENOCARCINOMA, Dose [Carcinogen]: 10 MG ONCE, Promoter: NONE USED) 18/25 (72%), 17/25 (68%), 5%, not significant; (Carcinogen: 7,12-DIMETHYLBENZ[A]ANTHRACENE, 57-97-6, 0.03 MOL/KG DIET BEGINNING 2 WK PRIOR TO CARCINOGEN AND CONTINUED FOR STUDY DURATION (STUDY DURATION: 25 WK), Route [Inhibitor]: ORAL, Strain/Sex: CD-1/FEMALE, Target Tissue: Type of Lesion: MAMMARY GLAND: ADENOCARCINOMA, Dose [Carcinogen]: 10 MG ONCE, Promoter: NONE USED) 18/25 (72%), 12/25 (48%), 33%, not significant; (Carcinogen: 7,12-DIMETHYLBENZ[A]ANTHRACENE, 57-97-6, 0.06 MOL/KG DIET BEGINNING 2 WK PRIOR TO CARCINOGEN AND CONTINUED FOR STUDY DURATION (STUDY DURATION: 25 WK), Route [Inhibitor]: ORAL, Strain/Sex: CD-1/FEMALE, Target Tissue: Type of Lesion: MAMMARY GLAND: ADENOCARCINOMA, Dose [Carcinogen]: 10 MG ONCE, Promoter: NONE USED) 18/25 (72%), 13/25 (52%), 28%, not significant; (Carcinogen: AZOXYMETHANE, 25843-45-2, 25 MG/KG IN 0.9% SODIUM CHLORIDE 1/2 D FOR 40 WK ADMINISTERED CONCURRENTLY WITH CARCINOGEN (STUDY DURATION: 40 WK), Route [Inhibitor]: SUBCUTANEOUS, Strain/Sex: WISTAR, Target Tissue: Type of Lesion: COLON: TUMOR, Dose [Carcinogen]: 7.4 MG/KG IN 0.9% SODIUM CHLORIDE SOLUTION 1/WK FOR 10 WK, Promoter: NONE USED) 17/18 (94%), 7/17 (41%), 56%, p<0.01; (Carcinogen: N-METHYL-N'-NITRO-N-NITROSOGUANIDINE, 70-25-7, 5 MG/KG 1/2 D ADMINISTERED SIMULTANEOUSLY WITH 30 MG/KG SULPIRIDE BEGINNING 1 WK POST CARCINOGEN TREATMENT AND CONTIN, Route [Inhibitor]: SUBCUTANEOUS, Strain/Sex: WISTAR/MALE, Target Tissue: Type of Lesion: STOMACH: ADENOCARCINOMA, Dose [Carcinogen]: 50 UG/ML IN DRINKING WATER FOR 25 WK, Promoter: NONE USED) 13/18 (72%), 5/20 (25%), 65%, not calculated; (Carcinogen: N-METHYL-N'-NITRO-N-NITROSOGUANIDINE, 70-25-7, 5 MG/KG 1/2 D BEGINNING 1 WK POST CARCINOGEN TREATMENT AND CONTINUING FOR DURATION OF STUDY (STUDY DURATION: 52 WK), Route [Inhibitor]: SUBCUTANEOUS, Strain/Sex: WISTAR/MALE, Target Tissue: Type of Lesion: STOMACH: ADENOCARCINOMA, Dose [Carcinogen]: 50 UG/ML IN DRINKING WATER FOR 25 WK, Promoter: NONE USED) 13/18 (72%), 13/20 (65%), 10%, not significant. Moreover, the “tumour outcome (control, treated, inhibition, significance)” value by setting is: (Carcinogen: N-METHYL-N'-NITRO-N-NITROSOGUANIDINE, 70-25-7, 5 MG/KG IN 1 ML/KG OLIVE OIL 1/2 D FOR STUDY DURATION BEGINNING POST CARCINOGEN TREATMENT (STUDY DURATION: 52 WK), Route [Inhibitor]: SUBCUTANEOUS, Strain/Sex: WISTAR/MALE, Target Tissue: Type of Lesion: GLANDULAR STOMACH: ADENOCARCINOMA, Dose [Carcinogen]: 50 UG/ML DRINKING WATER FOR 25 WK) 13/18 (72%), 13/20 (65%), 10%, not significant; (Carcinogen: N-METHYL-N'-NITRO-N-NITROSOGUANIDINE, 70-25-7, 25 MG/KG 1/2 D ADMINISTERED SIMULTANEOUSLY WITH 30 MG/KG SULPIRIDE BEGINNING 1 WK POST CARCINOGEN TREATMENT AND CONTI, Route [Inhibitor]: SUBCUTANEOUS, Strain/Sex: WISTAR/MALE, Target Tissue: Type of Lesion: STOMACH: ADENOCARCINOMA, Dose [Carcinogen]: 50 UG/ML IN DRINKING WATER FOR 25 WK, Promoter: NONE USED) 13/18 (72%), 6/20 (30%), 58%, not calculated; (Carcinogen: N-METHYL-N'-NITRO-N-NITROSOGUANIDINE, 70-25-7, 25 MG/KG 1/2 D BEGINNING 1 WK POST CARCINOGEN TREATMENT AND CONTINUING FOR DURATION OF STUDY (STUDY DURATION: 52 WK), Route [Inhibitor]: SUBCUTANEOUS, Strain/Sex: WISTAR/MALE, Target Tissue: Type of Lesion: STOMACH: ADENOCARCINOMA, Dose [Carcinogen]: 50 UG/ML IN DRINKING WATER FOR 25 WK, Promoter: NONE USED) 13/18 (72%), 6/20 (30%), 58%, p<0.05; (Carcinogen: N-METHYL-N'-NITRO-N-NITROSOGUANIDINE, 70-25-7, 25 MG/KG IN 0.9% SALINE 1/2 D BEGINNING 1 WK POST LAST CARCINOGEN DOSE AND CONTINUING FOR DURATION OF STUDY (STUDY DU, Route [Inhibitor]: SUBCUTANEOUS, Strain/Sex: WISTAR/MALE, Target Tissue: Type of Lesion: STOMACH: ADENOCARCINOMA, Dose [Carcinogen]: 100 UG/ML IN DRINKING WATER FOR 25 WK, Promoter: NONE USED) 16/20 (80%), 10/22 (45%), 44%, p<0.05.
